{"source": "ChEMBL document CHEMBL5226364", "about": "“Microbial Dimerization and Chlorination of Isoflavones by a Takla Makan Desert-Derived Streptomyces sp. HDN154127” (2023)", "note": "“And” between values parts separate entries of the source, which are not always exact repeats. Equal values may be shown once."}
{"tested_on": "Bacillus cereus", "test": "(§1) Antibacterial activity against Bacillus cereus assessed as inhibition of bacterial growth incubated for 24 hrs by microbroth dilution method", "assay_type": "functional", "details": "not given", "units": {"MIC": "µM"}}
{"smiles": "O=c1c(-c2ccc(O)cc2)coc2c(-c3cc(-c4coc5cc(O)cc(O)c5c4=O)ccc3O)c(O)ccc12", "MIC": 12}
{"tested_on": "Bacillus cereus", "test": "as §1", "assay_type": "functional", "details": "Bacillus cereus, read-out: MIC", "units": {"MIC": "µM"}}
{"smiles": "O=c1c(-c2ccc(Oc3c(O)cc(O)c4c(=O)c(-c5ccc(O)cc5)coc34)cc2)coc2c(Cl)c(O)cc(O)c12", "MIC": "> 50"}
{"smiles": "O=c1c(-c2ccc(O)c(Oc3ccc(-c4coc5c(Cl)c(O)ccc5c4=O)cc3)c2)coc2cc(O)ccc12", "MIC": "> 50"}
{"smiles": "O=c1c(-c2ccc(O)c(-c3c(O)ccc4c(=O)c(-c5ccc(O)cc5)coc34)c2)coc2cc(O)ccc12", "MIC": 3.1}
{"smiles": "O=c1c(-c2ccc(O)c(Oc3ccc(-c4coc5c(Cl)c(O)cc(O)c5c4=O)cc3)c2)coc2cc(O)ccc12", "MIC": "> 50"}
{"smiles": "COc1c(O)ccc2c(=O)c(-c3ccc(O)c(-c4cc(-c5coc6cc(O)ccc6c5=O)ccc4O)c3)coc12", "MIC": 25}
{"smiles": "O=C(O)c1cn(C2CC2)c2cc(N3CCNCC3)c(F)cc2c1=O", "note": "[CIPROFLOXACIN]", "MIC": "< 0.4"}
{"smiles": "O=c1c(-c2ccc(O)cc2)coc2c(-c3cc(-c4coc5cc(O)cc(O)c5c4=O)ccc3O)c(O)ccc12", "MIC": 6.2}
{"tested_on": "Proteus sp.", "test": "(§2) Antibacterial activity against Proteus sp. assessed as inhibition of bacterial growth incubated for 24 hrs by microbroth dilution method", "assay_type": "functional", "details": "not given", "units": {"MIC": "µM"}}
{"smiles": "O=c1c(-c2ccc(O)cc2)coc2c(-c3cc(-c4coc5cc(O)cc(O)c5c4=O)ccc3O)c(O)ccc12", "MIC": 25}
{"tested_on": "Proteus sp.", "test": "as §2", "assay_type": "functional", "details": "Proteus sp. (in: enterobacteria), read-out: MIC", "units": {"MIC": "µM"}}
{"smiles": "O=c1c(-c2ccc(Oc3c(O)cc(O)c4c(=O)c(-c5ccc(O)cc5)coc34)cc2)coc2c(Cl)c(O)cc(O)c12", "MIC": "> 50"}
{"smiles": "O=c1c(-c2ccc(O)c(Oc3ccc(-c4coc5c(Cl)c(O)ccc5c4=O)cc3)c2)coc2cc(O)ccc12", "MIC": "> 50"}
{"smiles": "O=c1c(-c2ccc(O)c(-c3c(O)ccc4c(=O)c(-c5ccc(O)cc5)coc34)c2)coc2cc(O)ccc12", "MIC": 50}
{"smiles": "O=c1c(-c2ccc(O)c(Oc3ccc(-c4coc5c(Cl)c(O)cc(O)c5c4=O)cc3)c2)coc2cc(O)ccc12", "MIC": "> 50"}
{"smiles": "COc1c(O)ccc2c(=O)c(-c3ccc(O)c(-c4cc(-c5coc6cc(O)ccc6c5=O)ccc4O)c3)coc12", "MIC": "> 50"}
{"smiles": "O=C(O)c1cn(C2CC2)c2cc(N3CCNCC3)c(F)cc2c1=O", "note": "[CIPROFLOXACIN]", "MIC": 0.8}
{"smiles": "O=c1c(-c2ccc(O)cc2)coc2c(-c3cc(-c4coc5cc(O)cc(O)c5c4=O)ccc3O)c(O)ccc12", "MIC": 50}
{"tested_on": "Mycolicibacterium phlei", "test": "(§3) Antibacterial activity against Mycobacterium phlei assessed as inhibition of bacterial growth incubated for 24 hrs by microbroth dilution method", "assay_type": "functional", "details": "not given"}
{"smiles": "O=c1c(-c2ccc(O)cc2)coc2c(-c3cc(-c4coc5cc(O)cc(O)c5c4=O)ccc3O)c(O)ccc12", "MIC": "12 µM and 25 µM"}
{"tested_on": "Mycolicibacterium phlei", "test": "as §3", "assay_type": "functional", "details": "Mycolicibacterium phlei, read-out: MIC", "units": {"MIC": "µM"}}
{"smiles": "O=c1c(-c2ccc(Oc3c(O)cc(O)c4c(=O)c(-c5ccc(O)cc5)coc34)cc2)coc2c(Cl)c(O)cc(O)c12", "MIC": "> 50"}
{"smiles": "O=c1c(-c2ccc(O)c(Oc3ccc(-c4coc5c(Cl)c(O)ccc5c4=O)cc3)c2)coc2cc(O)ccc12", "MIC": "> 50"}
{"smiles": "O=c1c(-c2ccc(O)c(-c3c(O)ccc4c(=O)c(-c5ccc(O)cc5)coc34)c2)coc2cc(O)ccc12", "MIC": 6.2}
{"smiles": "O=c1c(-c2ccc(O)c(Oc3ccc(-c4coc5c(Cl)c(O)cc(O)c5c4=O)cc3)c2)coc2cc(O)ccc12", "MIC": "> 50"}
{"smiles": "COc1c(O)ccc2c(=O)c(-c3ccc(O)c(-c4cc(-c5coc6cc(O)ccc6c5=O)ccc4O)c3)coc12", "MIC": 25}
{"smiles": "O=C(O)c1cn(C2CC2)c2cc(N3CCNCC3)c(F)cc2c1=O", "note": "[CIPROFLOXACIN]", "MIC": "< 0.4"}
{"tested_on": "Bacillus subtilis", "test": "(§4) Antibacterial activity against Bacillus subtilis assessed as inhibition of bacterial growth incubated for 24 hrs by microbroth dilution method", "assay_type": "functional", "details": "not given"}
{"smiles": "O=c1c(-c2ccc(O)cc2)coc2c(-c3cc(-c4coc5cc(O)cc(O)c5c4=O)ccc3O)c(O)ccc12", "MIC": "25 µM and 12 µM"}
{"tested_on": "Bacillus subtilis", "test": "as §4", "assay_type": "functional", "details": "Bacillus subtilis, read-out: MIC", "units": {"MIC": "µM"}}
{"smiles": "O=c1c(-c2ccc(Oc3c(O)cc(O)c4c(=O)c(-c5ccc(O)cc5)coc34)cc2)coc2c(Cl)c(O)cc(O)c12", "MIC": 0.8}
{"smiles": "O=c1c(-c2ccc(O)c(Oc3ccc(-c4coc5c(Cl)c(O)ccc5c4=O)cc3)c2)coc2cc(O)ccc12", "MIC": 0.8}
{"smiles": "O=c1c(-c2ccc(O)c(-c3c(O)ccc4c(=O)c(-c5ccc(O)cc5)coc34)c2)coc2cc(O)ccc12", "MIC": 6.2}
{"smiles": "O=c1c(-c2ccc(O)c(Oc3ccc(-c4coc5c(Cl)c(O)cc(O)c5c4=O)cc3)c2)coc2cc(O)ccc12", "MIC": 1.6}
{"smiles": "COc1c(O)ccc2c(=O)c(-c3ccc(O)c(-c4cc(-c5coc6cc(O)ccc6c5=O)ccc4O)c3)coc12", "MIC": 25}
{"smiles": "O=C(O)c1cn(C2CC2)c2cc(N3CCNCC3)c(F)cc2c1=O", "note": "[CIPROFLOXACIN]", "MIC": "< 0.4"}
{"tested_on": "Vibrio parahaemolyticus", "test": "Antibacterial activity against Vibrio parahaemolyticus assessed as inhibition of bacterial growth incubated for 24 hrs by microbroth dilution method", "assay_type": "functional", "details": "not given", "units": {"MIC": "µM"}}
{"smiles": "O=c1c(-c2ccc(Oc3c(O)cc(O)c4c(=O)c(-c5ccc(O)cc5)coc34)cc2)coc2c(Cl)c(O)cc(O)c12", "MIC": 3.1}
{"smiles": "O=c1c(-c2ccc(O)c(Oc3ccc(-c4coc5c(Cl)c(O)ccc5c4=O)cc3)c2)coc2cc(O)ccc12", "MIC": 0.8}
{"smiles": "O=c1c(-c2ccc(O)c(-c3c(O)ccc4c(=O)c(-c5ccc(O)cc5)coc34)c2)coc2cc(O)ccc12", "MIC": 12}
{"smiles": "O=c1c(-c2ccc(O)c(Oc3ccc(-c4coc5c(Cl)c(O)cc(O)c5c4=O)cc3)c2)coc2cc(O)ccc12", "MIC": 3.1}
{"smiles": "COc1c(O)ccc2c(=O)c(-c3ccc(O)c(-c4cc(-c5coc6cc(O)ccc6c5=O)ccc4O)c3)coc12", "MIC": "> 50"}
{"smiles": "O=C(O)c1cn(C2CC2)c2cc(N3CCNCC3)c(F)cc2c1=O", "note": "[CIPROFLOXACIN]", "MIC": "< 0.4"}
{"smiles": "O=c1c(-c2ccc(O)cc2)coc2c(-c3cc(-c4coc5cc(O)cc(O)c5c4=O)ccc3O)c(O)ccc12", "MIC": 50}
{"tested_on": "Candida albicans", "test": "Antifungal activity against monilia albicans assessed as inhibition of fungal growth incubated for 24 hrs by microbroth dilution method", "assay_type": "functional", "details": "not given", "units": {"MIC": "µM"}}
{"smiles": "O=c1c(-c2ccc(Oc3c(O)cc(O)c4c(=O)c(-c5ccc(O)cc5)coc34)cc2)coc2c(Cl)c(O)cc(O)c12", "MIC": 1.6}
{"smiles": "O=c1c(-c2ccc(O)c(Oc3ccc(-c4coc5c(Cl)c(O)ccc5c4=O)cc3)c2)coc2cc(O)ccc12", "MIC": 1.6}
{"smiles": "O=c1c(-c2ccc(O)c(-c3c(O)ccc4c(=O)c(-c5ccc(O)cc5)coc34)c2)coc2cc(O)ccc12", "MIC": "> 50"}
{"smiles": "O=c1c(-c2ccc(O)c(Oc3ccc(-c4coc5c(Cl)c(O)cc(O)c5c4=O)cc3)c2)coc2cc(O)ccc12", "MIC": 1.6}
{"smiles": "COc1c(O)ccc2c(=O)c(-c3ccc(O)c(-c4cc(-c5coc6cc(O)ccc6c5=O)ccc4O)c3)coc12", "MIC": "> 50"}
{"smiles": "O=c1c(-c2ccc(O)cc2)coc2c(-c3cc(-c4coc5cc(O)cc(O)c5c4=O)ccc3O)c(O)ccc12", "MIC": "> 50"}
{"tested_on": "Staphylococcus aureus", "test": "Antibacterial activity against methicillin-resistant Staphylococcus aureus assessed as inhibition of bacterial growth incubated for 24 hrs by microbroth dilution method", "assay_type": "functional", "details": "not given", "units": {"MIC": "µM"}}
{"smiles": "O=c1c(-c2ccc(Oc3c(O)cc(O)c4c(=O)c(-c5ccc(O)cc5)coc34)cc2)coc2c(Cl)c(O)cc(O)c12", "MIC": "> 50"}
{"smiles": "O=c1c(-c2ccc(O)c(Oc3ccc(-c4coc5c(Cl)c(O)ccc5c4=O)cc3)c2)coc2cc(O)ccc12", "MIC": "> 50"}
{"smiles": "O=c1c(-c2ccc(O)c(-c3c(O)ccc4c(=O)c(-c5ccc(O)cc5)coc34)c2)coc2cc(O)ccc12", "MIC": "> 50"}
{"smiles": "O=c1c(-c2ccc(O)c(Oc3ccc(-c4coc5c(Cl)c(O)cc(O)c5c4=O)cc3)c2)coc2cc(O)ccc12", "MIC": "> 50"}
{"smiles": "COc1c(O)ccc2c(=O)c(-c3ccc(O)c(-c4cc(-c5coc6cc(O)ccc6c5=O)ccc4O)c3)coc12", "MIC": "> 50"}
{"smiles": "O=C(O)c1cn(C2CC2)c2cc(N3CCNCC3)c(F)cc2c1=O", "note": "[CIPROFLOXACIN]", "MIC": "> 50"}
